IC50 data for 70 compounds are collected here from patent US9416126B2, “Compounds inhibiting leucine-rich repeat kinase enzyme activity” (Merck Sharp & Dohme Corp., priority 2013, dated 2016).

Sequence of LRRK2(G2019S mutation, GST-LRRK2(amino acids 970-2527)) (Q5S007 970-2527 G2019S): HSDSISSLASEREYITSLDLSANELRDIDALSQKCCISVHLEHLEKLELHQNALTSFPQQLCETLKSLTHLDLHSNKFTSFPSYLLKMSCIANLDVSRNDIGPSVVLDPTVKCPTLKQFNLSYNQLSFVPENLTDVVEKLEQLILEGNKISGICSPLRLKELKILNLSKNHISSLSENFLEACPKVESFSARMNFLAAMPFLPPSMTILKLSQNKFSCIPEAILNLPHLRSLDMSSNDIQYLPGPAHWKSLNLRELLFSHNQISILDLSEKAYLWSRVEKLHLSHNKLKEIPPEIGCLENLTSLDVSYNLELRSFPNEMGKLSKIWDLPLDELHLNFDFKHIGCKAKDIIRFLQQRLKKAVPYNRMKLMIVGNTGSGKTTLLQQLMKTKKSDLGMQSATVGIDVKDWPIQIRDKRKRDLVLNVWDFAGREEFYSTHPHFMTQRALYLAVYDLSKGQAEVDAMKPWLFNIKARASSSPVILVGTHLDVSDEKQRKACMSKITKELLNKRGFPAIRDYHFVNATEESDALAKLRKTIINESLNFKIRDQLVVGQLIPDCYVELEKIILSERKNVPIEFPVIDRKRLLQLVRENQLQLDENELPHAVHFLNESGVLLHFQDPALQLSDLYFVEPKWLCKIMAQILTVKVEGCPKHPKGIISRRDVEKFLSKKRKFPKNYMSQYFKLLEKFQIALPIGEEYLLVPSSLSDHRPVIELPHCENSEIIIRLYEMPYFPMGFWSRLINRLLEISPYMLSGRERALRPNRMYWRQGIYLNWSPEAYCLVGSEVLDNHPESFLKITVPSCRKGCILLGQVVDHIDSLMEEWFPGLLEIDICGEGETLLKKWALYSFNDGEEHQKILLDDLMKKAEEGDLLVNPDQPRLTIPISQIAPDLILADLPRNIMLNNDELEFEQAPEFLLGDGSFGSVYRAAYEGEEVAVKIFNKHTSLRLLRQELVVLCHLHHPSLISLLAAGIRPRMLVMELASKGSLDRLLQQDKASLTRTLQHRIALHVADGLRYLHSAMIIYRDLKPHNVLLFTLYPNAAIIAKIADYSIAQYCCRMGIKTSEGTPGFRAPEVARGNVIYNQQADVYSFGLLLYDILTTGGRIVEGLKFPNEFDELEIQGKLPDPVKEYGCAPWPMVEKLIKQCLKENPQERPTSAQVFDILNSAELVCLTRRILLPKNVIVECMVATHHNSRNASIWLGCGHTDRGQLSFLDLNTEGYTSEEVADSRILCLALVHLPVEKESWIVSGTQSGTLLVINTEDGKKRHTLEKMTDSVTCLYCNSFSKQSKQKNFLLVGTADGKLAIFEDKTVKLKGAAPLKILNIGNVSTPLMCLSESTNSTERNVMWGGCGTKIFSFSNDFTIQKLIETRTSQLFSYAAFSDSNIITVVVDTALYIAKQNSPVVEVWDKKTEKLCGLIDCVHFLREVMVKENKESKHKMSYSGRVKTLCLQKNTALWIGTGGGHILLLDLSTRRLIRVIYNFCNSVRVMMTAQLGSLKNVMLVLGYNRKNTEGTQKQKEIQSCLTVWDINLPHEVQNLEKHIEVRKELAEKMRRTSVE

One assay deals with LRRK2(G2019S mutation, GST-LRRK2(amino acids 970-2527)) (Homo sapiens (Human), UniProt Q5S007, G2019S). Briefly: LRRK2 Km ATP LanthaScreen Assay. The conditions noted are these: Examples N1-N25. The format is biochemical. A digest of the protocol:
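TR-FRET: GST-LRRK2 970-2527 G2019S (2.5 nM solution) preincubated 30 min with compound (98 μM top, 1:2.15 dilutions), then 800 nM fluorescein-LRRKtide and 184 μM ATP solution added for 60 min at room temperature in Tris pH 8.5 buffer. Stopped with EDTA and Tb anti-phospho-LRRKtide antibody; IC50 is a mean of several tests.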
Background: In TR-FRET formats the signal depends on donor and acceptor labels being close together.
The term IC50 denotes the concentration needed to halve the response being measured. Read a high IC50 as lower potency. Take `CC(C)Oc1cc2c(-c3cc(N4CCn5nc(C(F)(F)F)nc5C4C)ncn3)n[nH]c2cc1F` (stereo not shown) [Example N5]: inhibition was half-maximal at 176 nM (IC50).

The compound `CC(C)Oc1cc2c(-c3cc(N4CCOC(C(F)(F)F)C4)ncn3)n[nH]c2cc1F` (stereo not shown) [Example N3] registered an IC50 of 26.6 nM.

Regarding `CC(C)Oc1cc2c(-c3cc(N4CCOC(C)(C)C4)ncn3)n[nH]c2cc1F` [Example N15], the IC50 was determined as 6.2 nM.

Staying with this assay, now noted: Examples O1-O23.
`COC[C@H](C)Oc1ccc2[nH]nc(-c3cc(N4CCC(F)(F)C4)ncn3)c2c1` [Example O8] yielded an IC50 of 12.6 nM. This lies in the double-digit nanomolar range.

`COC[C@H](C)Oc1ccc2[nH]nc(-c3cc(N4CCOC(C(F)(F)F)C4)ncn3)c2c1` (stereo partly shown) [Example O5]: the IC50 came to 8.6 nM.

Compound `COC[C@H](C)Oc1ccc2[nH]nc(-c3cc(N4CCC(F)(F)CC4)ncn3)c2c1` [Example O19] registered an IC50 of 8 nM. The IC50 values of the last two compounds are within 1.5-fold of each other.

The assay is the same for the next values; noted with them: Examples P1-P18.
`c1ncc(-c2ccc3[nH]nc(-c4cc(N5CCOCC5)ncn4)c3c2)cn1` [Example P5] had an IC50 of 40.7 nM.

Regarding `O=S(=O)(c1ccc(-c2ccc3[nH]nc(-c4cc(N5CCOCC5)ncn4)c3c2)cc1)N1CCCC1` [Example P9], the IC50 is 914 nM. This IC50 lies about 22-fold higher than the previous one.

Compound `COCCn1cc(-c2ccc3[nH]nc(-c4cc(N5CCOCC5)ncn4)c3c2)cn1` [Example P16] registered an IC50 of 1.5 nM.

Compound `c1nc(-c2n[nH]c3ccc(-c4ccc5ncnn5c4)cc23)cc(N2CCOCC2)n1` [Example P2] came in with an IC50 of 193 nM.

The assay is the same for the next values; noted with them: Examples Q1-Q20.
`COc1ccc(-c2ccc3[nH]nc(-c4cc(N5C[C@@H](C)O[C@@H](C)C5)ncn4)c3c2)cn1` [Example Q9] registered an IC50 of 41.1 nM.

`C[C@@H]1CN(c2cc(-c3n[nH]c4ccc(-c5ccnn5C)cc34)ncn2)C[C@H](C)O1` [Example Q3] gave an IC50 of 32.1 nM. The IC50 values of the last two compounds are within 1.5-fold of each other.

Consider `C[C@@H]1CN(c2cc(-c3n[nH]c4ccc(-c5cccc(C#N)c5)cc34)ncn2)C[C@H](C)O1` [Example Q19], for which 47.9 nM corresponded to half-maximal inhibition (IC50).

Staying with this assay, now noted: Km ATP (184 μM ATP solution), G2019S LRRK2, mean IC50.
The compound `CC(C)Oc1ccc2[nH]nc(-c3cc(N4CCN(C)C(=O)C4)ncn3)c2c1` [Example D9] yielded an IC50 of 11.2 nM.

In turn, `COC[C@H](C)Oc1ccc2[nH]nc(-c3cc(N4CCC5(CC4)CC(=O)N(C)C5)ncn3)c2c1` [Example H10] returned an IC50 of 2.87 nM.

For the compound `Cn1cc(-c2ccc3[nH]nc(-c4cc(N5CC[C@@H](CO)C5)ncn4)c3c2)cn1` [Example M7], the IC50 amounted to 2.9 nM. The IC50 values of the last two compounds are within 1.5-fold of each other.

Compound `CC(C)Oc1ccc2[nH]nc(-c3cc(N4CC(S(C)(=O)=O)C4)ncn3)c2c1` [Example J16] had an IC50 of 13.3 nM.

In the case of `Cn1cc(-c2cc3c(-c4cc(N5CCCC(C)(O)C5)ncn4)n[nH]c3cc2F)cn1` (stereo not shown) [Example L7], the IC50 is 67.5 nM.

With `Cn1cc(-c2cc3c(-c4cc(N5CCC(n6cccn6)C5)ncn4)n[nH]c3cc2F)cn1` (stereo not shown) [Example L16], the midpoint of inhibition, the IC50, lay at 73.5 nM.

`COc1ccc2[nH]nc(-c3cc(N4CC5CCC(C4)O5)ncn3)c2c1` [Example E6] had an IC50 of 148 nM.

In turn, `CC(C)Oc1cc2c(-c3cc(N4CC[C@H](N)C4)ncn3)n[nH]c2cc1F` [Example D59] showed an IC50 of 10.4 nM.

As to `COC[C@@H](C)Oc1ccc2[nH]nc(-c3cc(N4CCO[C@H](C)C4)ncn3)c2c1` [Example H3], inhibition was half-maximal at 35.5 nM (IC50). This IC50 is about 3.4-fold higher than that of the compound before.

Consider `Cn1cc(-c2ccc3[nH]nc(-c4cc(N5CCCC(F)(F)C5)ncn4)c3c2)cn1` [Example M2], for which the midpoint of inhibition, the IC50, lay at 2.2 nM. Against the preceding compound, the IC50 is about 16-fold lower.

Regarding `C[C@@H]1CN(c2cc(-c3n[nH]c4ccc(-c5cnn(C)c5)cc34)ncn2)CCO1` [Example M9], it took 1.9 nM to reach half-maximal inhibition (IC50).

`CC(C)Oc1ccc2[nH]nc(-c3cc(N4CCN(c5nncs5)CC4)ncn3)c2c1` [Example K21] displayed an IC50 of 17 nM.

Consider `COc1ccc2[nH]nc(-c3cc(N4C[C@H](F)[C@@H](F)C4)ncn3)c2c1` [Example E2], for which it took 68.6 nM to reach half-maximal inhibition (IC50). This IC50 lies about 4-fold higher than the previous one.

As to `CC(C)Oc1ccc2[nH]nc(-c3cc(N4CCC(O)CC4)ncn3)c2c1` [Example J1], half-maximal inhibition (IC50) required 5.9 nM.

As for `COC[C@H](C)Oc1ccc2[nH]nc(-c3cc(N4C[C@@H](C)O[C@@H](C)C4)ncn3)c2c1` [Example H5], the IC50 turned out to be 1.7 nM.

For the compound `Cn1cc(-c2ccc3[nH]nc(-c4cc(N5CCCC(C)(O)C5)ncn4)c3c2)cn1` (stereo not shown) [Example M8], half-maximal inhibition (IC50) required 7.9 nM.

In turn, `CC(C)=Cc1ccc2[nH]nc(-c3cc(N4CCN(S(C)(=O)=O)CC4)ncn3)c2c1` [Example S2] showed an IC50 of 28.8 nM.

The compound `COC[C@@H](C)Oc1ccc2[nH]nc(-c3cc(N4CCOCC4)ncn3)c2c1` [Example H1] showed an IC50 of 56.2 nM.

Compound `CC(C)Oc1ccc2[nH]nc(-c3cc(N4CCc5nc(C6CC6)oc5C4)ncn3)c2c1` [Example J20] yielded an IC50 of 43 nM.

Turning to `COC[C@H](C)Oc1ccc2[nH]nc(-c3cc(N4CC[C@@H](OC)C4)ncn3)c2c1` [Example H12], half-maximal inhibition (IC50) required 4.8 nM.

Compound `CC(C)Oc1cc2c(-c3cc(N4C[C@@H](C)N(C)[C@@H](C)C4)ncn3)n[nH]c2cc1F` [Example D72] showed an IC50 of 1.33 nM.

Compound `Cn1cc(-c2cc3c(-c4cc(N5CCN(C6CC6)CC5)ncn4)n[nH]c3cc2F)cn1` [Example L11] came in with an IC50 of 17.7 nM. This IC50 is about 13-fold higher than that of the compound before.

`COC(=O)N1CCN(c2cc(-c3n[nH]c4ccc(OC(C)C)cc34)ncn2)CC1` [Example K9] had an IC50 of 10.2 nM.

Compound `Cn1cc(-c2cc3c(-c4cc(N5CCn6ncnc6C5)ncn4)n[nH]c3cc2F)cn1` [Example L1] had an IC50 of 63.9 nM.

`CCOc1ccc2[nH]nc(-c3cc(N4CCN(C)C(=O)C4)ncn3)c2c1` [Example F7] gave an IC50 of 37.1 nM.

Compound `CS(=O)(=O)N1CCN(c2cc(-c3n[nH]c4ccc(-c5cnccn5)cc34)ncn2)CC1` [Example I2] showed an IC50 of 19.2 nM. Against the preceding compound, the IC50 is about 1.9-fold lower.

On to `Cn1cc(-c2cc3c(-c4cc(N5CC[C@H](CF)C5)ncn4)n[nH]c3cc2F)cn1` [Example L2], for which the IC50 was 13.6 nM.

The compound `COCCOc1ccc2[nH]nc(-c3cc(N4C[C@@H](C)O[C@@H](C)C4)ncn3)c2c1` [Example G2] came in with an IC50 of 76.6 nM. This IC50 is about 5.6-fold higher than that of the compound before.

Compound `COc1ccc2[nH]nc(-c3cc(N4C[C@@H](C)O[C@@H](C)C4)ncn3)c2c1` [Example E3] showed an IC50 of 29.3 nM.

Regarding `CN(C)[C@@H]1CN(c2cc(-c3n[nH]c4cc(F)c(-c5cnn(C)c5)cc34)ncn2)C[C@H]1O` [Example L21], the IC50 stood at 67.1 nM. Against the preceding compound, the IC50 is about 2.3-fold higher.

Regarding `CC(C)Oc1cc2c(-c3cc(N4CCO[C@H](C)C4)ncn3)n[nH]c2cc1F` [Example D39], the IC50 was determined as 2.87 nM.

With `CO[C@@H]1CCN(c2cc(-c3n[nH]c4ccc(OC(C)C)cc34)ncn2)C1` [Example D30], the IC50 was found to be 7.47 nM.

For `COc1ccc2[nH]nc(-c3cc(N4CCO[C@@H](C)C4)ncn3)c2c1` [Example E13], the IC50 turned out to be 76.9 nM.

Consider `CC(C)N1CCN(c2cc(-c3n[nH]c4ccc(-c5cnn(C)c5)cc34)ncn2)CC1` [Example A15], for which it took 0.73 nM to reach half-maximal inhibition (IC50).

`CC(C)Oc1cc2c(-c3cc(N4C[C@H](F)[C@@H](F)C4)ncn3)n[nH]c2cc1F` [Example D35]: the midpoint of inhibition, the IC50, lay at 4.78 nM.

In the case of `CO[C@H]1CCN(c2cc(-c3n[nH]c4ccc(-c5cnn(C)c5)cc34)ncn2)C1` [Example M10], 2.6 nM corresponded to half-maximal inhibition (IC50).

Compound `Cn1cc(-c2cc3c(-c4cc(N5CCc6oncc6C5)ncn4)n[nH]c3cc2F)cn1` [Example L10] had an IC50 of 453 nM. This IC50 lies about 170-fold higher than the previous one.

The compound `Cn1cc(-c2ccc3[nH]nc(-c4cc(N5CC[S+]([O-])CC5)ncn4)c3c2)cn1` [Example M11] had an IC50 of 26.8 nM.

The compound `CCOc1ccc2[nH]nc(-c3cc(N4C[C@H](F)[C@@H](F)C4)ncn3)c2c1` [Example F3] displayed an IC50 of 26.6 nM. The IC50 values of the last two compounds are within 1.5-fold of each other.

`Cn1cc(-c2ccc3[nH]nc(-c4cc(N5CCC(F)(CO)CC5)ncn4)c3c2)cn1` [Example M24] showed an IC50 of 2.9 nM.

Regarding `Cn1cc(-c2cc3c(-c4cc(N5C[C@@H](F)[C@H](F)C5)ncn4)n[nH]c3cc2F)cn1` [Example L14], the IC50 was 29.9 nM.

As to `c1cnc(-c2ccc3[nH]nc(-c4cc(N5CCOCC5)ncn4)c3c2)cn1` [Example I1], inhibition was half-maximal at 34.7 nM (IC50).

In the case of `CC(C)Oc1cc2c(-c3cc(N4CC[C@@H](N)C4)ncn3)n[nH]c2cc1F` [Example D58], the IC50 amounted to 7.3 nM.

In the case of `Cn1cc(-c2cc3c(-c4cc(N5CCCC6(CCO6)C5)ncn4)n[nH]c3cc2F)cn1` (stereo not shown) [Example L15], the IC50 came out at 398 nM. Compared with the last compound, the IC50 is about 55-fold higher.

Take `CCOc1ccc2[nH]nc(-c3cc(N4CCO[C@@H](C)C4)ncn3)c2c1` [Example F13]: the IC50 stood at 41.2 nM.

In turn, `COCCNc1cc(-c2n[nH]c3ccc(OC(C)C)cc23)ncn1` [Example D16] came in with an IC50 of 26.3 nM.

Regarding `CN1CCN(c2cc(-c3n[nH]c4ccc(-c5cnn(C)c5)cc34)ncn2)CC1=O` [Example A5], the IC50 came to 4.91 nM.

On to `CCOc1ccc2[nH]nc(-c3cc(N4CCN(C)CC4)ncn3)c2c1` [Example F4], for which the half-inhibitory concentration (IC50) worked out at 26.9 nM. Compared with the last compound, the IC50 is about 5.5-fold higher.

Compound `Cn1cc(-c2ccc3[nH]nc(-c4cc(N5C[C@H](F)[C@@H](F)C5)ncn4)c3c2)cn1` [Example M13] gave an IC50 of 3.8 nM.

In turn, `Cn1cc(-c2cc3c(-c4cc(N5CCC(F)(C#N)CC5)ncn4)n[nH]c3cc2F)cn1` [Example L19] had an IC50 of 39.4 nM.

Consider `Cc1nc2c(o1)CCN(c1cc(-c3n[nH]c4ccc(-c5cnn(C)c5)cc34)ncn1)C2` [Example M14], for which the IC50 was 2.8 nM.

In the case of `COCCNc1cc(-c2n[nH]c3ccc(-c4cnn(C)c4)cc23)ncn1` [Example A7], the IC50 came out at 15 nM. Against the preceding compound, the IC50 is about 5.4-fold higher.

Compound `CC(C)Oc1ccc2[nH]nc(-c3cc(N4CC5CCC(C4)O5)ncn3)c2c1` [Example D8] had an IC50 of 29.2 nM.

The compound `Cn1cc(-c2ccc3[nH]nc(-c4cc(N5CCc6nccnc6C5)ncn4)c3c2)cn1` [Example M28] displayed an IC50 of 2.7 nM.

The same assay, now with this note: Table U.
As to `C1=C(c2ccc3[nH]nc(-c4cc(N5CCOCC5)ncn4)c3c2)CCNC1` [Example U12], inhibition was half-maximal at 71.6 nM (IC50).

Take `FC1(F)CCN(c2cc(-c3n[nH]c4ccc(-c5cn[nH]c5)cc34)ncn2)CC1` [Example U7]: it took 5.69 nM to reach half-maximal inhibition (IC50).

In turn, `COc1ccncc1-c1ccc2[nH]nc(-c3cc(N4CCN(C(C)C)CC4)ncn3)c2c1` [Example U23] registered an IC50 of 1.26 nM.
